Measured values as given in patent publication US10526389B2, “Peptides and combinations of peptides for use in immunotherapy against lung cancer, including NSCLC and other cancers” (Immatics Biotechnologies GmbH, priority 2015, dated 2020).

System: CD8+ T cells
Assay: In vitro immunogenicity of HLA-A*02 peptides (CD8+ T-cell priming with aAPCs, multimer staining)
Type: cell-based, human
Source text: In order to obtain information regarding the immunogenicity of the TUMAPs of the present invention, the inventors performed investigations using an in vitro T-cell priming assay based on repeated stimulations of CD8+ T cells with artificial antigen presenting cells (aAPCs) loaded with peptide/MHC complexes and anti-CD28 antibody.
In order to perform in vitro stimulations by artificial antigen presenting cells loaded with peptide-MHC complex (pMHC) and anti-CD28 antibody, the inventors first isolated CD8+ T cells from fresh HLA-A*02 leukapheresis products via positive selection using CD8 microbeads (Miltenyi Biotec, Bergisch-Gladbach, Germany) of healthy donors obtained from the University clinics Mannheim, Germany, after informed consent.
PBMCs and isolated CD8+ lymphocytes were incubated in T-cell medium (TCM) until use consisting of RPMI-Glutamax (Invitrogen, Karlsruhe, Germany) supplemented with 10% heat inactivated human AB serum (PAN-Biotech, Aidenbach, Germany), 100 U/ml Penicillin/100 μg/ml Streptomycin (Cambrex, Cologne, Germany), 1 mM sodium pyruvate (CC Pro, Oberdorla, Germany), 20 μg/ml Gentamycin (Cambrex). 2.5 ng/ml IL-7 (PromoCell, Heidelberg, Germany) and 10 U/ml IL-2 (Novartis Pharma, Nurnberg, Germany) were also added to the TCM at this step.
Generation of pMHC/anti-CD28 coated beads, T-cell stimulations and readout was performed in a highly defined in vitro system using four different pMHC molecules per stimulation condition and 8 different pMHC molecules per readout condition.
The purified co-stimulatory mouse IgG2a anti human CD28 Ab 9.3 (Jung et al., 1987) was chemically biotinylated using Sulfo-N-hydroxysuccinimidobiotin as recommended by the manufacturer (Perbio, Bonn, Germany). Beads used were 5.6 μm diameter streptavidin coated polystyrene particles (Bangs Laboratories, Illinois, USA).
800.000 beads/200 μl were coated in 96-well plates in the presence of 4×12.5 ng different biotin-pMHC, washed and 600 ng biotin anti-CD28 were added subsequently in a volume of 200 μl. Stimulations were initiated in 96-well plates by co-incubating 1×10^6 CD8+ T cells with 2×10^5 washed coated beads in 200 μl TCM supplemented with 5 ng/ml IL-12 (PromoCell) for 3 days at 37° C. Half of the medium was then exchanged by fresh TCM supplemented with 80 U/ml IL-2 and incubating was continued for 4 days at 37° C. This stimulation cycle was performed for a total of three times. For the pMHC multimer readout using 8 different pMHC molecules per condition, a two-dimensional combinatorial coding approach was used as previously described (Andersen et al., 2012) with minor modifications encompassing coupling to 5 different fluorochromes. Finally, multimeric analyses were performed by staining the cells with Live/dead near IR dye (Invitrogen, Karlsruhe, Germany), CD8-FITC antibody clone SK1 (BD, Heidelberg, Germany) and fluorescent pMHC multimers. For analysis, a BD LSRII SORP cytometer equipped with appropriate lasers and filters was used. Peptide specific cells were calculated as percentage of total CD8+ cells. Evaluation of multimeric analysis was done using the FlowJo software (Tree Star, Oregon, USA). In vitro priming of specific multimer+CD8+ lymphocytes was detected by comparing to negative control stimulations.

| Substance | in vitro immunogenicity: donors | in vitro immunogenicity: wells |
| --- | --- | --- |
| ILIDWLVQV (listed as Homo sapiens) [SEQ ID No. 117] | ++++ (>= 70% = ++++) | ++ (20%-49% = ++) |
| SILEHQIQV (listed as Homo sapiens) [SEQ ID No. 106] | + (<20% = +) | + (<20% = +) |
| ATP-001 (SLHFLILYV; listed as Homo sapiens) | ++++ (>= 70% = ++++) | ++++ (>= 70% = ++++) |
| SNRNP20-001 (GLIEIISNA; listed as Homo sapiens) | ++++ (>= 70% = ++++) | ++ (20%-49% = ++) |
| IVDDITYNV (listed as Homo sapiens) [SEQ ID No. 119] | ++++ (>= 70% = ++++) | ++ (20%-49% = ++) |
| FLFDGSANL (listed as Homo sapiens) [SEQ ID No. 13] | ++ (20%-49% = ++) | + (<20% = +) |
| KRT-006 (TLLQEQGTKTV; listed as Homo sapiens) | ++ (20%-49% = ++) | + (<20% = +) |
| COG4-001 (SLVAVELEKV) | ++++ (>= 70% = ++++) | + (<20% = +) |
| ILLTEQINL (listed as Homo sapiens) [SEQ ID No. 18] | ++ (20%-49% = ++) | + (<20% = +) |
| NLIEKSIYL (listed as Homo sapiens) [SEQ ID No. 141] | ++++ (>= 70% = ++++) | + (<20% = +) |
| DUSP4-001 (FVFSFPVSV; listed as Homo sapiens) | ++++ (>= 70% = ++++) | ++ (20%-49% = ++) |
| DIO2-001 (ALYDSVILL; listed as Homo sapiens) | + (<20% = +) | + (<20% = +) |
| SMYD3-001 (SLIEDLILL; listed as Homo sapiens) | ++ (20%-49% = ++) | + (<20% = +) |
| DKC-001 (ALFQRPPLI; listed as Homo sapiens) | ++++ (>= 70% = ++++) | ++ (20%-49% = ++) |
| RLLDSVSRL (listed as Homo sapiens) [SEQ ID No. 121] | ++++ (>= 70% = ++++) | ++ (20%-49% = ++) |
| MCM5-001 (ALSGTLSGV; listed as Homo sapiens) | ++++ (>= 70% = ++++) | + (<20% = +) |
| COL6A3-003 (NLLDLDYEL; listed as Homo sapiens) | ++++ (>= 70% = ++++) | + (<20% = +) |
| UBE2S-001 (ALNEEAGRLLL; listed as Homo sapiens) | ++++ (>= 70% = ++++) | + (<20% = +) |
| CDK4-001 (TLWYRAPEV; listed as Homo sapiens) | ++++ (>= 70% = ++++) | ++++ (>= 70% = ++++) |
| DROSHA-001 (AVVEFLTSV) | ++++ (>= 70% = ++++) | + (<20% = +) |
| PRPF3-001 (AMGIAPPKV; listed as Homo sapiens) | ++++ (>= 70% = ++++) | ++++ (>= 70% = ++++) |
| KIF26B-001 (TVAEVIQSV; listed as Homo sapiens) | + (<20% = +) | + (<20% = +) |
| TLYPHTSQV (listed as Homo sapiens) [SEQ ID No. 140] | ++++ (>= 70% = ++++) | ++ (20%-49% = ++) |
| BNC1-001 (VLFPNLKTV) | ++++ (>= 70% = ++++) | + (<20% = +) |
| KIFDEILVNA (listed as Homo sapiens) [SEQ ID No. 144] | ++ (20%-49% = ++) | + (<20% = +) |

| Substance | in vitro immunogenicity: donors | in vitro immunogenicity: wells |
| --- | --- | --- |
| ALLNILSEV (listed as Homo sapiens) [SEQ ID No. 8] | ++++ (>= 70% = ++++) | ++ (20%-49% = ++) |
| BUB1B-001 (KIVDFSYSV) | ++++ (>= 70% = ++++) | ++ (20%-49% = ++) |
| SLQGSIMTV (listed as Homo sapiens) [SEQ ID No. 6] | ++++ (>= 70% = ++++) | ++ (20%-49% = ++) |
| COL6A3-002 (FLLDGSANV; listed as Homo sapiens) | ++++ (>= 70% = ++++) | ++ (20%-49% = ++) |
| COL6A3-007 (FLYDVVKSL; listed as Homo sapiens) | ++++ (>= 70% = ++++) | + (<20% = +) |
| IVAESLQQV (listed as Homo sapiens) [SEQ ID No. 105] | + (<20% = +) | + (<20% = +) |
| VLLPVEVATHYL (listed as Homo sapiens) [SEQ ID No. 142] | ++ (20%-49% = ++) | + (<20% = +) |
| CERC-001 (KLSWDLIYL; listed as Homo sapiens) | ++++ (>= 70% = ++++) | +++ (50%-69% = +++) |
| GFPT2-001 (AIDGNNHEV) | ++++ (>= 70% = ++++) | +++ (50%-69% = +++) |
| PCNXL3-001 (GVLENIFGV; listed as Homo sapiens) | +++ (50%-69% = +++) | + (<20% = +) |
| ABCA13-001 (ILFEINPKL) | ++++ (>= 70% = ++++) | + (<20% = +) |
| FLIPYAIML (listed as Homo sapiens) [SEQ ID No. 2] | ++++ (>= 70% = ++++) | + (<20% = +) |
| ABCA13-002 (ALDENLHQL) | +++ (50%-69% = +++) | + (<20% = +) |
| RAD54B-001 (SLYKGLLSV; listed as Homo sapiens) | ++++ (>= 70% = ++++) | ++ (20%-49% = ++) |
| TNC-001 (AMTQLLAGV; listed as Homo sapiens) | ++ (20%-49% = ++) | + (<20% = +) |
| ALVDHTPYL (listed as Homo sapiens) [SEQ ID No. 136] | ++++ (>= 70% = ++++) | + (<20% = +) |
| IVDRTTTVV (listed as Homo sapiens) [SEQ ID No. 12] | ++++ (>= 70% = ++++) | ++++ (>= 70% = ++++) |
| MXRA5-002 (GLTDNIHLV; listed as Homo sapiens) | ++++ (>= 70% = ++++) | + (<20% = +) |
| AIVDKVPSV (listed as Homo sapiens) [SEQ ID No. 143] | +++ (50%-69% = +++) | + (<20% = +) |
| ALTSTLISV (listed as Homo sapiens) [SEQ ID No. 5] | ++++ (>= 70% = ++++) | + (<20% = +) |
| RLASYLDKV (listed as Homo sapiens) [SEQ ID No. 133] | ++++ (>= 70% = ++++) | ++ (20%-49% = ++) |
| CSNK2A2-001 (VLSSGLTAA; listed as Homo sapiens) | + (<20% = +) | + (<20% = +) |
| PLT-001 (ALFGALFLA; listed as Homo sapiens) | ++ (20%-49% = ++) | + (<20% = +) |
| YVYQNNIYL (listed as Homo sapiens) [SEQ ID No. 115] | ++++ (>= 70% = ++++) | + (<20% = +) |
